In patent US8853203B2, “Diazepinone derivatives” (Novartis AG, priority 2012, dated 2014):

Tests used:
[1] = target: human mGluR1 (Homo sapiens (Human), UniProt Q13255); assay: mGluR1 antagonism, L-glutamate induced intracellular calcium increase (FLIPR) in CHO cells stably expressing human mGluR1; format: cell-based; settings: for IC50: L-glutamate induced intracellular calcium, CHO cells expressing human mGluR1, FLIPR
Excerpt: Activity of compounds of the present invention with respect to mGluR1 antagonism was examined by an assay based on measurements of L-glutamate induced intracellular calcium increases using a 96 well plate-based Fluorometric Imaging Plate Reader (FLIPR), and CHO cells stably expressing human mGluR1. L-glutamate induced robust calcium responses via human mGluR1 in a concentration-dependent manner and in the low micromolar range. The table below represents IC50 values of the inhibition of the glutamate-induced elevation of the intracellular calcium concentration.

[2] = target: human mGluR5a receptors (Homo sapiens (Human), UniProt P41594); assay: inhibition of glutamate-induced elevation of intracellular calcium in L(tk-) cells expressing human mGluR5a; format: cell-based; settings: for IC50: glutamate-induced intracellular calcium elevation, L(tk-) cells expressing human mGluR5a, read-out: mGluR5 IC50; for inhibition at 2 µM: LTK, read-out: mGluR5 % inhibition at 2 μM
Sequence of human mGluR5a receptors (P41594 other isoform, or with tags, fused parts or gaps): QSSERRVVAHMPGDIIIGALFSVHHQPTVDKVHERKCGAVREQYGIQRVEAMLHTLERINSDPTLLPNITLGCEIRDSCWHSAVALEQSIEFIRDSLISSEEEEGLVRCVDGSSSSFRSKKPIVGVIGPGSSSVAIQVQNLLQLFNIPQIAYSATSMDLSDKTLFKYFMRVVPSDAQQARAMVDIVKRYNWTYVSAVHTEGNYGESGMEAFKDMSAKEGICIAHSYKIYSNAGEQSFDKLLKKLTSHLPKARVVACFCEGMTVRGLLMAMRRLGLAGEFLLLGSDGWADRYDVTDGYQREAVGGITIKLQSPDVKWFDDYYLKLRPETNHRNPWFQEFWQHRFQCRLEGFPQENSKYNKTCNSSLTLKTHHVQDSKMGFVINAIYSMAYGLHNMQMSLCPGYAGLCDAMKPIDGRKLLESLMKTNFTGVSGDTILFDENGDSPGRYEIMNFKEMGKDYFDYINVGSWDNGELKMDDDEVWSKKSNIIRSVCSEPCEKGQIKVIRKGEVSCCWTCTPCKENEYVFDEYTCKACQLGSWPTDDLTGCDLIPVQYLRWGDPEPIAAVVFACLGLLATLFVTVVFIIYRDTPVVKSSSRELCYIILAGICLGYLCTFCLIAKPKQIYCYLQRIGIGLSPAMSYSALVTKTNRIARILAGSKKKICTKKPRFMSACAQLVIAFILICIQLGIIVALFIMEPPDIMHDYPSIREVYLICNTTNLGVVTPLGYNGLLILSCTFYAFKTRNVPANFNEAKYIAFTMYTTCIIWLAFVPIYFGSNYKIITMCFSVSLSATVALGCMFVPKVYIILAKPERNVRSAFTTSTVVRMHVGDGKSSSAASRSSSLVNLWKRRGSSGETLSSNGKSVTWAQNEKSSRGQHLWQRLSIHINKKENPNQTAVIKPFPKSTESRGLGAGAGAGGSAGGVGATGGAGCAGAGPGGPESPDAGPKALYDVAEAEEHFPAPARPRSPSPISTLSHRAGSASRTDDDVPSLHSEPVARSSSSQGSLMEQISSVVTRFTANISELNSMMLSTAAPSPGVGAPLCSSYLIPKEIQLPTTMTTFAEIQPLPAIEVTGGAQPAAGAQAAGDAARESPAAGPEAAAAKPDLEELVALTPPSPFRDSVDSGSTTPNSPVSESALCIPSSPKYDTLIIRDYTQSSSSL
Excerpt: Activity of compounds of the present invention was examined by determination to what extent the glutamate-induced elevation of the intracellular calcium concentration in L(tk-) cells expressing human mGluR5a receptors (see L. P. Daggett et al., Neuropharm. Vol. 34, pages 871-886, 1995) is inhibited by utilizing methods as described e.g. by L. P. Daggett et al., Neuropharm. Vol. 34, pages 871-886 (1995) and P. J. Flor et al., J. Neurochem. Vol. 67, pages 58-63 (1996).

Sequence of human mGluR1 (Q13255 19-1194): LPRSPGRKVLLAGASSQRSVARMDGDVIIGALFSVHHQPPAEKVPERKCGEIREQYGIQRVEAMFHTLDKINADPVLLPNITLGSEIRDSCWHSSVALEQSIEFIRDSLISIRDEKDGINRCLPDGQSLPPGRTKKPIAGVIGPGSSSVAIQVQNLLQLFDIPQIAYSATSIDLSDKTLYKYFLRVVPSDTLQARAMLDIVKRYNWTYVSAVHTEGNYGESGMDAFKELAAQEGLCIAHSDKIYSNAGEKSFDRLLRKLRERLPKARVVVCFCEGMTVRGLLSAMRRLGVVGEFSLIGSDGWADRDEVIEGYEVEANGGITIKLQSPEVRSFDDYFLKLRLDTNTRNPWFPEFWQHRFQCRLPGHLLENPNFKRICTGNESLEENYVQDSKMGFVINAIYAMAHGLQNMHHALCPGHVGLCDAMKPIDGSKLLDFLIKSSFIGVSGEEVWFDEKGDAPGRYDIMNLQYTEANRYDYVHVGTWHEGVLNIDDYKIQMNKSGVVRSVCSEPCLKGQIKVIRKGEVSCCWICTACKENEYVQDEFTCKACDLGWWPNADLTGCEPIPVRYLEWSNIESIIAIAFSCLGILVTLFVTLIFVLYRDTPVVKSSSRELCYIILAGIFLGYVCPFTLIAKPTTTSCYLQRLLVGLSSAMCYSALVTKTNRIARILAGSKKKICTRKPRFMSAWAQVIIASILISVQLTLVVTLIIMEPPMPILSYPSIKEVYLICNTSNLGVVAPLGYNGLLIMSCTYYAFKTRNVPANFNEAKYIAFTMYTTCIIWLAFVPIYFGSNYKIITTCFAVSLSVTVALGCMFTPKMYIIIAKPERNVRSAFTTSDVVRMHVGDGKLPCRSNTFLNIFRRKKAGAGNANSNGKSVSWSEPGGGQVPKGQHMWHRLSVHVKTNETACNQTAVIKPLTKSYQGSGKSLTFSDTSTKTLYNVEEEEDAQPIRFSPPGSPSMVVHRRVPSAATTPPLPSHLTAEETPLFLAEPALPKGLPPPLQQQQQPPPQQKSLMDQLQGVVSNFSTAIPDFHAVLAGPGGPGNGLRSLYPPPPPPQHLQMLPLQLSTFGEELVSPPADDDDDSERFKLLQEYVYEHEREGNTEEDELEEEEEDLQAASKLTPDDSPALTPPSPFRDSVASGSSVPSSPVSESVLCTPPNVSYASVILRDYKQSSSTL

IC50 [1] [nM]	IC50 [2] [nM]	inhibition at 10 µM ([1]; CHO) [%]	inhibition at 2 µM [2] [%]	Compound
1640	56	–	–	O=C1CN=C(n2cnc(C(F)(F)F)c2)C=C2c3cccc(C4CC4)c3CCN12 [Example 123e, 9-cyclopropyl-2-(4-(trifluoromethyl)-1H-imidazol-1-yl)-7,8-dihydro-[1,4]diazepino[7,1-a]isoquinolin-5(4H)-one]
–	148	56	–	Cc1coc(-c2cccc3c2CCN2C(=O)CN=C(n4cnc(C5CC5)c4)C=C32)n1 [Example 87, 2-(4-cyclopropyl-1H-imidazol-1-yl)-9-(4-methyloxazol-2-yl)-7,8-dihydro-[1,4]diazepino[7,1-a]isoquinolin-5(4H)-one]
761	17	–	–	O=C1CN=C(n2cnc(C3CC3)n2)C=C2c3cccc(-c4nccs4)c3CCN12 [Example 88g, 2-(3-cyclopropyl-1H-1,2,4-triazol-1-yl)-9-(thiazol-2-yl)-7,8-dihydro-[1,4]diazepino[7,1-a]isoquinolin-5(4H)-one]
1500	3	–	–	COCc1ncn(C2=NCC(=O)N3CCc4c(cccc4C4CC4)C3=C2)n1 [Example 93, 9-cyclopropyl-2-(3-(methoxymethyl)-1H-1,2,4-triazol-1-yl)-7,8-dihydro-[1,4]diazepino[7,1-a]isoquinolin-5(4H)-one]
1050	46	–	–	COCCc1cn(C2=NCC(=O)N3CCc4c(cccc4-c4nccs4)C3=C2)cn1 [Example 88h, 2-(4-(2-methoxyethyl)-1H-imidazol-1-yl)-9-(thiazol-2-yl)-7,8-dihydro-[1,4]diazepino[7,1-a]isoquinolin-5(4H)-one]
> 10000	3500	–	–	CC(C)c1cn(C2=NCC(=O)N3CCc4c(cccc4-c4nccn4C)C3=C2)cn1 [Example 73, 2-(4-isopropyl-1H-imidazol-1-yl)-9-(1-methyl-1H-imidazol-2-yl)-7,8-dihydro-[1,4]diazepino[7,1-a]isoquinolin-5(4H)-one]
560	19	–	–	O=C1CN=C(n2cnc(C3CC3)c2)C=C2c3cccc(-c4ccno4)c3CCN12 [Example 100, 2-(4-cyclopropyl-1H-imidazol-1-yl)-9-(isoxazol-5-yl)-7,8-dihydro-[1,4]diazepino[7,1-a]isoquinolin-5(4H)-one]
> 2000	31	–	–	O=C1CN=C(n2cnc(C3CC3)c2)C=C2c3cccc(-c4cncs4)c3CCN12 [Example 88d, 2-(4-cyclopropyl-1H-imidazol-1-yl)-9-(thiazol-5-yl)-7,8-dihydro-[1,4]diazepino[7,1-a]isoquinolin-5(4H)-one]
> 10000	700	–	–	Cn1ccc(C2=NCC(=O)N3CCc4c(CO)cccc4C3=C2)n1 [Example 45, 9-(hydroxymethyl)-2-(1-methyl-1H-pyrazol-3-yl)-7,8-dihydro-[1,4]diazepino[7,1-a]isoquinolin-5(4H)-one]
1500	210	–	–	O=C1CN=C(n2cnc(CO)c2)C=C2c3cccc(I)c3CCN12 [Example 65, 2-(4-(hydroxymethyl)-1H-imidazol-1-yl)-9-iodo-7,8-dihydro-[1,4]diazepino[7,1-a]isoquinolin-5(4H)-one]
2340	1	–	–	O=C1CN=C(n2cnc(-c3ccno3)c2)C=C2c3cccc(C4CC4)c3CCN12 [Example 123b, 9-cyclopropyl-2-(4-(isoxazol-5-yl)-1H-imidazol-1-yl)-7,8-dihydro-[1,4]diazepino[7,1-a]isoquinolin-5(4H)-one]
> 10000	2200	–	–	COc1ccc(C2=NCC(=O)N3CCc4c(OC)cccc4C3=C2)cc1 [Example 17, 9-methoxy-2-(4-methoxyphenyl)-7,8-dihydro-[1,4]diazepino[7,1-a]isoquinolin-5(4H)-one]
2400	14	–	–	O=C1CN=C(n2cnc(C3CCC3)c2)C=C2c3cccc(-c4cccnc4F)c3CCN12 [Example 98, 2-(4-cyclobutyl-1H-imidazol-1-yl)-9-(2-fluoropyridin-3-yl)-7,8-dihydro-[1,4]diazepino[7,1-a]isoquinolin-5(4H)-one]
> 10000	–	–	31	O=C1CN=C(n2cnc(C3CC3)c2)C=C2c3cccc(-c4ccc(O)nc4)c3CCN12 [Example 99c, 2-(4-cyclopropyl-1H-imidazol-1-yl)-9-(6-hydroxypyridin-3-yl)-7,8-dihydro-[1,4]diazepino[7,1-a]isoquinolin-5(4H)-one]
> 10000	20	–	–	O=C1CN=C(n2cnc(C3CCC3)c2)C=C2c3cccc(-n4cccn4)c3CCN12 [Example 69, 2-(4-cyclobutyl-1H-imidazol-1-yl)-9-(1H-pyrazol-1-yl)-7,8-dihydro-[1,4]diazepino[7,1-a]isoquinolin-5(4H)-one]
1300	7	–	–	O=C1CN=C(n2cnc(C3CC3)c2)C=C2c3cccc(-c4ncco4)c3CCN12 [Example 104, 2-(4-cyclopropyl-1H-imidazol-1-yl)-9-(oxazol-2-yl)-7,8-dihydro-[1,4]diazepino[7,1-a]isoquinolin-5(4H)-one]
> 10000	66	–	–	Cn1cc(C2=NCC(=O)N3CCc4c(cccc4N4CCOCC4)C3=C2)cn1 [Example 25, 2-(1-methyl-1H-pyrazol-4-yl)-9-morpholino-7,8-dihydro-[1,4]diazepino[7,1-a]isoquinolin-5(4H)-one]
> 10000	1600	–	–	CCc1cn(C2=NCC(=O)N3CCc4c(cccc4C4(F)COC4)C3=C2)cn1 [Example 114, 2-(4-ethyl-1H-imidazol-1-yl)-9-(3-fluorooxetan-3-yl)-7,8-dihydro-[1,4]diazepino[7,1-a]isoquinolin-5(4H)-one]
> 10000	–	–	57	O=C1CN=C(n2cnc(C(F)F)c2)C=C2c3ccnc(C4CC4)c3CCN12 [Example 110d, 9-cyclopropyl-2-(4-(difluoromethyl)-1H-imidazol-1-yl)-7,8-dihydro-[1,4]diazepino[7,1-a][2,6]naphthyridin-5(4H)-one]
> 10000	48	–	–	Cc1ncn(C2=NCC(=O)N3CCc4c(cccc4-c4cnc(F)cn4)C3=C2)n1 [Example 137, 9-(5-fluoropyrazin-2-yl)-2-(3-methyl-1H-1,2,4-triazol-1-yl)-7,8-dihydro-[1,4]diazepino[7,1-a]isoquinolin-5(4H)-one]
3880	34	–	–	Cc1ncc(-c2cccc3c2CCN2C(=O)CN=C(n4cnc(C5CC5)c4)C=C32)s1 [Example 88e, 2-(4-cyclopropyl-1H-imidazol-1-yl)-9-(2-methylthiazol-5-yl)-7,8-dihydro-[1,4]diazepino[7,1-a]isoquinolin-5(4H)-one]
> 10000	437	–	–	Cn1ccc(C2=NCC(=O)N3CCc4c(cccc4C(C)(C)O)C3=C2)n1 [Example 27, 9-(2-hydroxypropan-2-yl)-2-(1-methyl-1H-pyrazol-3-yl)-7,8-dihydro-[1,4]diazepino[7,1-a]isoquinolin-5(4H)-one]
890	7	–	–	COCc1cn(C2=NCC(=O)N3CCc4c(C5=CCCC5)cccc4C3=C2)cn1 [Example 120, 9-(cyclopent-1-en-1-yl)-2-(4-(methoxymethyl)-1H-imidazol-1-yl)-7,8-dihydro-[1,4]diazepino[7,1-a]isoquinolin-5(4H)-one]
814	2	–	–	COCc1ncn(C2=NCC(=O)N3CCc4c(ccc(F)c4C4CC4)C3=C2)n1 [Example 99p, 9-cyclopropyl-10-fluoro-2-(3-(methoxymethyl)-1H-1,2,4-triazol-1-yl)-7,8-dihydro-[1,4]diazepino[7,1-a]isoquinolin-5(4H)-one]
2300	35	–	–	COc1cccc(C2=NCC(=O)N3CCc4c(C(C)=O)cccc4C3=C2)c1 [Example 48, 9-acetyl-2-(3-methoxyphenyl)-7,8-dihydro-[1,4]diazepino[7,1-a]isoquinolin-5(4H)-one]

Compound	IC50 [1] [nM]	IC50 [2] [nM]	inhibition at 10 µM ([1]; CHO) [%]	inhibition at 2 µM [2] [%]
COC(=O)c1cccc2c1CCN1C(=O)CN=C(n3cnc(C4CC4)c3)C=C21 [Example 132, methyl 2-(4-cyclopropyl-1H-imidazol-1-yl)-5-oxo-4,5,7,8-tetrahydro-[1,4]diazepino[7,1-a]isoquinoline-9-carboxylate]	2070	61	–	–
O=C1CN=C(n2cnc(C3CC3)c2)C=C2c3cccc(-c4ccc(F)nc4)c3CCN12 [Example 95-1, 2-(4-cyclopropyl-1H-imidazol-1-yl)-9-(6-fluoropyridin-3-yl)-7,8-dihydro-[1,4]diazepino[7,1-a]isoquinolin-5(4H)-one]	10000	20	–	–
COCc1cn(C2=NCC(=O)N3CCc4c(cccc4C(C)(C)C)C3=C2)cn1 [Example 125, 9-(tert-butyl)-2-(4-(methoxymethyl)-1H-imidazol-1-yl)-7,8-dihydro-[1,4]diazepino[7,1-a]isoquinolin-5(4H)-one]	> 2000	180	–	–
CCCc1cccc2c1CCN1C(=O)CN=C(n3cnc(C)c3)C=C21 [Example 90, 2-(4-methyl-1H-imidazol-1-yl)-9-propyl-7,8-dihydro-[1,4]diazepino[7,1-a]isoquinolin-5(4H)-one]	1500	10	–	–
COCc1cn(C2=NCC(=O)N3CCc4c(C5CC5)cccc4C3C2)cn1 (stereo not drawn) [Example 143, 9-cyclopropyl-2-(4-(methoxymethyl)-1H-imidazol-1-yl)-1,7,8,12b-tetrahydro-[1,4]diazepino[7,1-a]isoquinolin-5(4H)-one]	> 10000	282	–	–
